Measured values: doi:10.1101/2023.02.25.530034v1 (biorxiv, 2023)

What was measured:
[1] = target: T1, rhBCAT1 (Homo sapiens, UniProt P54687); assay: aminotransferase activity assay with leucine dehydrogenase; format: biochemical
T1 sequence (P54687 1-386): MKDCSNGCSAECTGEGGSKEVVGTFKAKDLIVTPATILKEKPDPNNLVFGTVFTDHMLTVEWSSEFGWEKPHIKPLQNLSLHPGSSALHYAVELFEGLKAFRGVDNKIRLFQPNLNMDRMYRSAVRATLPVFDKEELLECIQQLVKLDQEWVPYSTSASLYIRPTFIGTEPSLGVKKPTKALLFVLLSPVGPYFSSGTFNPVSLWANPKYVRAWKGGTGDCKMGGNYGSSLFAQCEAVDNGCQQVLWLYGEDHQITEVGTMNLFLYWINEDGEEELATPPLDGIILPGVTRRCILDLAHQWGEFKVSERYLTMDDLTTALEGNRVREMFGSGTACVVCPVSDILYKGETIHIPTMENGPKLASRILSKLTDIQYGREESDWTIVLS

[2] = target: T2, rhBCAT2 (Homo sapiens, UniProt O15382); assay: as above; format: biochemical
T2 sequence (O15382 28-392): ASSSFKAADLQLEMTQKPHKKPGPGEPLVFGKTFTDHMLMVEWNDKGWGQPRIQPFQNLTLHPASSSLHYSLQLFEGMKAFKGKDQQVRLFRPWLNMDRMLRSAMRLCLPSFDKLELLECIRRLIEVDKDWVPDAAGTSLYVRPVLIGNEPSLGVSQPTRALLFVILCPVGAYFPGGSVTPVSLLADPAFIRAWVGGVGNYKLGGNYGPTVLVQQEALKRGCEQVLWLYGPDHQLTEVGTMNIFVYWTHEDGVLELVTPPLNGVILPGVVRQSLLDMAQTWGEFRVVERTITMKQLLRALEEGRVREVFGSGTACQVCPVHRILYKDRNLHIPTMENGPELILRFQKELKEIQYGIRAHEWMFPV

**Q.** For O=C(O)CCC(C(=O)c1ccc(Br)cc1)c1ccccc1 (centres unmarked) [ERG245], which IC50 [1] is on record?
**A.** ~0.5 nM

**Q.** And the IC50 [2]?
**A.** > 1000 nM
